Measured values taken from patent US20240246940A1, “HETEROARYL DERIVATIVE COMPOUND AND USE THEREOF” (VORONOI INC., priority 2021, published 2024).

Legend:
[1] = test system: SK-BR-3 cells (HER2 overexpressing cell line); experiment: SK-BR-3 cell proliferation inhibitory activity (CellTiter-Glo, 120 hours); type: cell-based; details: Homo sapiens
Description: (§1) To evaluate the cell proliferation inhibitory activity of the compound according to the present invention on HER2 and EGFR kinases, the following method was performed using HER2 overexpressing cell lines (SK-BR-3, BT-474, and N-87) and EGFR expressing cell line (HaCaT).
(§2) McCOY'S 5A supplemented with 10% FBS was used for SK-BR-3 cells, RPMI-1640 medium supplemented with 20% FBS was used for BT-474 cancer cells, and RPMI-1640 medium supplemented with 10% FBS was used for N-87 cancer cells. DMEM supplemented with 10% FBS was used for HaCaT cells.
(§3) For SK-BR-3 cells, 5000 cells were aliquoted into each well of a white clear bottom 96 well plate (Corning) 48 hours before treatment with the compounds of Examples. For BT-474 cells, 5000 cells were aliquoted into each well of a white clear bottom 96 well plate (Corning) 48 hours before treatment with the compounds of Examples. For N-87 cells, 5000 cells were aliquoted into each well of a white clear bottom 96 well plate (Corning) 24 hours before treatment with the compounds of Examples. For HaCaT cells, 3000 cells were aliquoted into each well of a white clear bottom 96 well plate (Corning) 24 hours before treatment with the compounds of Examples. For SK-BR-3 cells and BT-474 cells, the compounds of Examples were diluted in dimethyl sulfoxide (three-fold dilution, a total of 11 concentrations) and injected each in an amount of 1 μl to a final concentration of 0.2 nM to 10 μM. For N-87 cells, the compounds of Examples were diluted in dimethyl sulfoxide (five-fold dilution, a total of 11 concentrations) and injected each in an amount of 0.5 μl to a final concentration of […] to 5 μM. For HaCaT cells, the compounds of Examples were diluted in dimethyl sulfoxide (three-fold dilution, a total of 11 concentrations) and injected each in an amount of 0.5 μl to a final concentration of 0.8 nM to 45 μM. For the measurement of living cells, the cells were stored at room temperature for 10 minutes using CellTiter-Glo cell viability reagent (Promega) after a certain period of time (SK-BR-3: 120 hours, BT-474: 120 hours, N-87: 72 hours, and HaCaT: 72 hours) post treatment with the compounds of Examples, and the luminescence intensity thereof was measured using a reader (SynergyNeo, Biotek). Each test was repeated three times.
(§4) The result values were calculated as a cell growth rate (%) compared to those of the control group. A graph was created using the GraphPad Prism version 5.0 program, and GI50 values were calculated.

[2] = test system: HaCaT cells (EGFR expressing cell line); experiment: HaCaT cell proliferation inhibitory activity (CellTiter-Glo, 72 hours); type: cell-based; details: Homo sapiens
Description: as §1, §2, §3, §4

Row | SMILES | GI50 [1] | GI50 [2]
1 | C=CC(=O)N1CC(Oc2cc3c(Nc4cc(-c5cnc(Cl)c(F)c5)ccc4OC)ncnc3cc2OC)C1 [Example 27, 1-(3-((4-((5-(6-chloro-5-fluoropyridin-3-yl)-2-methoxyphenyl)amino)-7-methoxy-quinazolin-6-yl)oxy)azetidin-1-yl)prop-2-en-1-one] | 0.15 to 1 µM | 0.15 to 1 µM
2 | C=CC(=O)N1CC(Oc2cc3c(Nc4cc(-c5ccc(Cl)c(F)c5)ccc4OC)ncnc3cc2OC)C1 [Example 28, 1-(3-((4-((4′-chloro-3′-fluoro-4-methoxy-[1,1′-biphenyl]-3-yl)amino)-7-methoxy-quinazolin-6-yl)oxy)azetidin-1-yl)prop-2-en-1-one] | 0.15 to 1 µM | 0.15 to 1 µM
3 | C=CC(=O)N1CC(Oc2cc3c(Nc4cc(-c5ccc6ccn(C)c6c5)ccc4OC)ncnc3cc2OC)C1 [Example 34, 1-(3-((7-methoxy-4-((2-methoxy-5-(1-methyl-1H-indol-6-yl)phenyl)amino)quinazolin-6-yl)oxy)azetidin-1-yl)prop-2-en-1-one] | > 1 µM | 0.15 to 1 µM
4 | C=CC(=O)N1CC(Oc2cc3c(Nc4cc(-c5cnn6cccnc56)ccc4OC)ncnc3cc2OC)C1 [Example 39, 1-(3-((7-methoxy-4-((2-methoxy-5-(pyrazolo[1,5-a]pyrimidin-3-yl)phenyl)amino)quinazolin-6-yl)oxy)azetidin-1-yl)prop-2-en-1-one] | 0.15 to 1 µM | 0.15 to 1 µM
5 | C=CC(=O)N1CC(Oc2cc3c(Nc4cc(-c5ccoc5C)ccc4OC)ncnc3cc2OC)C1 [Example 51, 1-(3-((7-methoxy-4-((2-methoxy-5-(2-methylfuran-3-yl)phenyl)amino)quinazolin-6-yl)oxy)azetidin-1-yl)prop-2-en-1-one] | ≤ 0.15 µM | ≤ 0.15 µM
6 | C=CC(=O)N1CC(Oc2cc3c(Nc4cc(-c5cccs5)ccc4OCC)ncnc3cc2OC)C1 [Example 54, 1-(3-((4-((2-ethoxy-5-(thiophen-2-yl)phenyl)amino)-7-methoxy-quinazolin-6-yl)oxy)azetidin-1-yl)prop-2-en-1-one] | ≤ 0.15 µM | ≤ 0.15 µM
7 | C=CC(=O)N1CC(Oc2cc3c(Nc4cc(-c5ccn6ncnc6c5)ccc4OCC)ncnc3cc2OC)C1 [Example 56, 1-(3-((4-((5-([1,2,4]triazolo [1,5-a]pyridin-7-yl)-2-ethoxyphenyl)amino)-7-methoxy-quinazolin-6-yl)oxy)azetidin-1-yl)prop-2-en-1-one] | 0.15 to 1 µM | > 1 µM
8 | C=CC(=O)N1CC(Oc2cc3c(Nc4cc(-c5ccc6occc6c5)ccc4OCC)ncnc3cc2OC)C1 [Example 57, 1-(3-((4-((5-(benzofuran-5-yl)-2-ethoxyphenyl)amino)-7-methoxy-quinazolin-6-yl)oxy)azetidin-1-yl)prop-2-en-1-one] | 0.15 to 1 µM | 0.15 to 1 µM
9 | C=CC(=O)N1CCC(Oc2cc3c(Nc4cc(-c5ccc(F)cc5)ccc4OC)ncnc3cc2OC)C1 (stereo not drawn) [Example 60, 1-(3-((4-((4′-fluoro-4-methoxy-[1,1′-biphenyl]-3-yl)amino)-7-methoxy-quinazolin-6-yl)oxy)pyrrolidin-1-yl)prop-2-en-1-one] | ≤ 0.15 µM | 0.15 to 1 µM
10 | C=CC(=O)N1CCC(Oc2cc3c(Nc4cc(-c5ccnn5C)ccc4OC)ncnc3cc2OC)C1 (stereo not drawn) [Example 61, 1-(3-((7-methoxy-4-((2-methoxy-5-(1-methyl-1H-pyrazol-5-yl)phenyl)amino)quinazolin-6-yl)oxy)pyrrolidin-1-yl)prop-2-en-1-one] | 0.15 to 1 µM | > 1 µM
11 | C=CC(=O)N1CCC(Oc2cc3c(Nc4cc(-c5cccnc5)ccc4OC)ncnc3cc2OC)CC1 [Example 66, 1-(4-((7-methoxy-4-((2-methoxy-5-(pyridin-3-yl)phenyl)amino)quinazolin-6-yl)oxy)piperidin-1-yl)prop-2-en-1-one] | 0.15 to 1 µM | 0.15 to 1 µM

More lines, main results first:

Row | GI50 [1] | SMILES | GI50 [2]
12 | ≤ 0.15 µM | C=CC(=O)N1CC(Oc2cc3c(Nc4cc(-c5ccc(C#N)cc5)ccc4OC)ncnc3cc2OC)C1 [Example 26, 3′-((6-((1-acryloylazetidin-3-yl)oxy)-7-methoxy-quinazolin-4-yl)amino)-4′-methoxy-[1,1′-biphenyl]-4-carbonitrile] | ≤ 0.15 µM
13 | ≤ 0.15 µM | C=CC(=O)N1CC(Oc2cc3c(Nc4cc(-c5ccc(F)c(F)c5)ccc4OC)ncnc3cc2OC)C1 [Example 29, 1-(3-((4-((3′,4′-difluoro-4-methoxy-[1,1′-biphenyl]-3-yl)amino)-7-methoxy-quinazolin-6-yl)oxy)azetidin-1-yl)prop-2-en-1-one] | ≤ 0.15 µM
14 | 0.15 to 1 µM | C=CC(=O)N1CC(Oc2cc3c(Nc4cc(-c5ccc6ncnn6c5)ccc4OC)ncnc3cc2OC)C1 [Example 31, 1-(3-((4-((5-([1,2,4]triazolo [1,5-a]pyridin-6-yl)-2-methoxyphenyl)amino)-7-methoxy-quinazolin-6-yl)oxy)azetidin-1-yl)prop-2-en-1-one] | > 1 µM
15 | ≤ 0.15 µM | C=CC(=O)N1CC(Oc2cc3c(Nc4cc(-c5cccn6ccnc56)ccc4OC)ncnc3cc2OC)C1 [Example 35, 1-(3-((4-((5-(imidazo[1,2-a]pyridin-8-yl)-2-methoxyphenyl)amino)-7-methoxy-quinazolin-6-yl)oxy)azetidin-1-yl)prop-2-en-1-one] | 0.15 to 1 µM
16 | 0.15 to 1 µM | C=CC(=O)N1CC(Oc2cc3c(Nc4cc(-c5cccc6ncsc56)ccc4OC)ncnc3cc2OC)C1 [Example 36, 1-(3-((4-((5-(benzo[d]thiazol-7-yl)-2-methoxyphenyl)amino)-7-methoxy-quinazolin-6-yl)oxy)azetidin-1-yl)prop-2-en-1-one] | 0.15 to 1 µM
17 | 0.15 to 1 µM | C=CC(=O)N1CC(Oc2cc3c(Nc4cc(-c5coc6ccccc56)ccc4OC)ncnc3cc2OC)C1 [Example 40, 1-(3-((4-((5-(benzofuran-3-yl)-2-methoxyphenyl)amino)-7-methoxy-quinazolin-6-yl)oxy)azetidin-1-yl)prop-2-en-1-one] | ≤ 0.15 µM
18 | ≤ 0.15 µM | C=CC(=O)N1CC(Oc2cc3c(Nc4cc(-c5csc6ccccc56)ccc4OC)ncnc3cc2OC)C1 [Example 41, 1-(3-((4-((5-(benzo[b]thiophen-3-yl)-2-methoxyphenyl)amino)-7-methoxy-quinazolin-6-yl)oxy)azetidin-1-yl)prop-2-en-1-one] | ≤ 0.15 µM
19 | ≤ 0.15 µM | C=CC(=O)N1CC(Oc2cc3c(Nc4cc(-c5cccs5)c(C)cc4OC)ncnc3cc2OC)C1 [Example 52, 1-(3-((7-methoxy-4-((2-methoxy-4-methyl-5-(thiophen-2-yl)phenyl)amino)quinazolin-6-yl)oxy)azetidin-1-yl)prop-2-en-1-one] | ≤ 0.15 µM
20 | ≤ 0.15 µM | C=CC(=O)N1CC(Oc2cc3c(Nc4cc(-c5ccco5)ccc4OCC)ncnc3cc2OC)C1 [Example 55, 1-(3-((4-((2-ethoxy-5-(furan-2-yl)phenyl)amino)-7-methoxy-quinazolin-6-yl)oxy)azetidin-1-yl)prop-2-en-1-one] | ≤ 0.15 µM
21 | 0.15 to 1 µM | C=CC(=O)N1CCC(Oc2cc3c(Nc4cc(-c5cccnc5)ccc4OC)ncnc3cc2OC)C1 (stereo not drawn) [Example 59, 1-(3-((7-methoxy-4-((2-methoxy-5-(pyridin-3-yl)phenyl)amino)quinazolin-6-yl)oxy)pyrrolidin-1-yl)prop-2-en-1-one] | > 1 µM
